This assay addresses Calmodulin-1 (Homo sapiens, UniProt P0DP23). The experiment in a line: Fluorescence spectroscopy. Here is the method:
Experiments were conducted with HITACHI-4500 and Shimadzu RF-5301 fluorescence spectrophotometer.

The Kd is the free concentration of one partner at which half of the binding sites on the other are occupied at equilibrium, for simple one-to-one binding. A high value points to a looser complex. For `O=S(=O)(Nc1ccc(NS(=O)(=O)c2cccc3ccccc23)cc1)c1cccc2ccccc12` [BN1], the Kd came out at 0.07 µM. The same measure for `O=S(=O)(Nc1cccc(NS(=O)(=O)c2cccc3ccccc23)c1)c1cccc2ccccc12` [BN2]: 0.01 µM.

Take `COC(=O)[C@@H](CC(=O)c1cccc(C(=O)C[C@@H](Cc2c[nH]c3ccccc23)C(=O)OC)c1)Cc1c[nH]c2ccccc12` [BT1]: the Kd came out at 10 µM. Molecule `COC(=O)[C@@H](CC(=O)Cc1ccc(/C=C/c2ccc(CC(=O)C[C@@H](Cc3c[nH]c4ccccc34)C(=O)OC)cc2)cc1)Cc1c[nH]c2ccccc12` [BT2] returned a Kd of 9 µM.

The values are drawn from BindingDB's records for doi:10.1016/j.chembiol.2004.11.007 (University of Sheffield, 2005).
